This assay can be described thus: DPPH radical scavenging antioxidant test. Format: biochemical. The following applies: 517 nm; for Inhibition (radical scavenging inhibition): compound 3 μM in ethanol, 0.2 mL DPPH (0.75 mM), 30 min incubation in the dark. How it is done:
The antioxidant properties of the 8-(3-bromobenzylideneamino)naphthalene-1,3-disulfonic acid were studied by adding 0.2 mL DPPH (0.75 mM)) to compound 8-(3-bromobenzylideneamino)naphthalene-1,3-disulfonic acid (III) (3 μM) in ethanol. After 30 min of incubation in the dark, the absorbance was read against a blank at 517 nm. Ascorbic acid (vitamin C) was used as standard antioxidants (positive control). A blank sample was prepared by 0.2 ml of DPPH in 3 ml ethanol. A negative control sample was run using ethanol instead of the sample. The radical scavenging inhibition was calculated using the following equation: […]
On the technique in general: DPPH is a stable violet radical that fades when it is reduced.

SMILES strings stand for the structures.

Consider `O=S(=O)(O)c1cc(S(=O)(=O)O)c2c(/N=C/c3cccc(Br)c3)cccc2c1` [Product III, 8-(3-bromobenzylideneamino)naphthalene-1,3-disulfonic acid], for which the “Inhibition (radical scavenging inhibition)” value is listed as 50%. Also, the “antioxidant potential in DPPH test compared to vitamin C (in words)” value (DPPH in vitro test, vitamin C as positive control) is “high potential as an antioxidant compared to vitamin C”.

On to `O=C1O[C@H]([C@@H](O)CO)C(O)=C1O` [vit c, Ascorbic acid, reference compound], for which the “Inhibition (radical scavenging inhibition)” value came to 74%.

The record behind these values is US11932593B1, “8-(3-bromobenzylideneamino)naphthalene-1,3-disulfonic acid as an antioxidant compound” (KING FAISAL UNIVERSITY, priority 2023, dated 2024).
